# Tests used:
# HHA Cells = assay: Cytotoxicity in the hepatocyte culture system, inhibition of ATP synthesis (CellTiter-Glo bioluminescence); format: cell-based, human
# From the text: (§1) These immortalized cells are reported to be similar to quiescent normal human hepatocytes. […] The THLE-5 cell line (also named THLE-5B) was previously deposited under the terms and conditions of the Budapest Treaty at the American Type Culture Collection on Apr.
# (§2) The cell line THLE-5B-3A4, which expresses the 3A4 isoform of cytochrome P450, was derived by transfection of THLE-5B-c15 with a CMV expression vector comprising a human cDNA coding for the specific P450 isoenzyme and a selection marker, using methods known in the art.
# (§3) For the purposes of this study, the non-hepatotoxic drugs were administered at 50 μM (Table 1).
# [1] = as above; format: cell-based, human; conditions: human; hepatotoxic drugs were dosed at their IC50 for cytotoxicity, inhibition of ATP synthesis as endpoint; read-out: Concentration (IC50 value for cytotoxicity)
# From the text: as §1, §2, §3
# THLE-5B-3A4 [2] = assay: LC/LC/MS/MS peptide hits of biomarker polypeptides in conditioned media of treated hepatocytes; format: cell-based, human; conditions: 20 hr, concentrations of Table 1
# Experimental: Cells were incubated for 20 hr at 37° C.
# Following a single thaw in a 1 L cylinder of water at room temperature, the filtered media were concentrated by centrifugal filtration (10 kDa, Pall Gelman Laboratory, Ann Arbor, Mich.). […] After reduction, 500 nmol of iodoacetamide (Sigma) was added to each sample and incubated in the dark at room temperature for an additional 30 min. Finally, samples were diluted four-fold and 20 μg of TPCK-treated porcine trypsin (Promega, Madison, Wis.) was added to each sample prior to incubation for 18 hr at 37° C. Samples were subsequently desalted using separate C18 spin columns (Nest Group, Southboro, Mass.) before injection onto the LC/LC/MS/MS system.
# The capillary column was first packed with 10 cm of C18 reversed-phase material (SelfPack Poros 10 R2, ABI, Framingham, Mass.), and this was followed by 5 cm of strong cation exchange material (Poros 20 HS SCX, ABI). A load of 200 μg of digested material, based on the total protein assay, was used for each analysis.
# Each analysis included a salt step, followed by buffer wash, then a reversed phase run of increasing organic concentration. Following the completion of each successive reversed phase gradient, the salt concentration was increased, and the cycle was begun again (FIG. 2).
# This separation included a 100 min analysis with a gradient of 0-40% Buffer A to B for 0 to 75 min, 40-100% B for 75-85 min, 100-0% B for 85-90 min, and finally a re-equilibration hold at 0% B for 90-100 min. The aforementioned gradients were delivered by a binary pump (1100, Agilent, Wilmington, Del.), which was split 1:200 prior to connection to the capillary column.
# The mass spectrometer's capillary temp was set to 200° C., and the spray voltage was set to 2 kV. In survey scan mode, two microscans were used to acquire 9e^7 counts, with a maximum acquisition time of 1000 msec. In MS/MS mode, 3 microscans were used to acquire 2e^7 counts, with a maximum acquisition time of 300 msec. The instrument was set to trigger data dependent fragmentation of the three most intense ions detected during the MS survey scan.
# The output file from the […] program was then downloaded to desktop spreadsheet programs for further statistical analysis (Excel, Microsoft, Redmond, Wash.).
# THLE-5B-3A4 [3] = system: THLE-5B-3A4
# Experimental: When the cells reached confluence, the medium was removed by aspiration, and replaced with 30 ml of serum and transferrin free PMRF-4 medium (SFM) containing either vehicle (0.5% DMSO) or compound in 0.5% DMSO.
# Cells were incubated for 20 hr at 37° C. Conditioned media (i.e., media incubated with cells) was collected by decanting, then syringe-filtered through 0.22 μm membrane, and stored at −70° C. before preparation for LC/LC/MS/MS analysis.
# Following electrophoresis, the proteins were transferred to PVDF membrane at 30 V for 1 hr. […] Following incubation with an anti-rabbit secondary antibody (1:5000 dilution, Sigma), bands were visualized using an enhanced chemiluminescent detection system (ECL+, Amersham, Piscataway, N.J.) and imaged using a cooled charge-coupled device camera (Fluor S-Max, Bio-Rad, Hercules, Calif.). The signals from the blots were quantified using Quantity One software (Bio-Rad).
# Conditioned media samples used to identify the proteins were assayed by blotting to determine presence and relative concentrations of the proteins as a function of each treatment. This was done to verify the accuracy of the mass spectral data (Table 3) and to increase the precision of the quantitative measurements.
# [4] = Table 1, 8 treatments of the discovery panel
# [5] = Table 2, panel of 20 treatments
compound,measurement,setting,value
CC(C)c1nc(CN(C)C(=O)N[C@H](C(=O)N[C@@H](Cc2ccccc2)C[C@H](O)[C@H](Cc2ccccc2)NC(=O)OCc2cncs2)C(C)C)cs1 [Ritonavir],Toxicity in HHA Cells,HHA Cells; [4],Toxic
same,Toxicity in HHA Cells,HHA Cells; [5],Toxic
Cc1oc(-c2ccccc2)nc1CCOc1ccc(C[C@H](Nc2ccccc2C(=O)c2ccccc2)C(=O)O)cc1 [Farglitazar],Toxicity in HHA Cells,HHA Cells; [4],Toxic
same,Toxicity in HHA Cells,HHA Cells; [5],Toxic
same,IC50,[1],8.61 µM
same,peptide hits BMS-PTX-062,THLE-5B-3A4 [2],29
same,peptide hits BMS-PTX-120,THLE-5B-3A4 [2],35
same,peptide hits BMS-PTX-225,THLE-5B-3A4 [2],10
same,peptide hits BMS-PTX-254,THLE-5B-3A4 [2],14
same,peptide hits BMS-PTX-260,THLE-5B-3A4 [2],21
same,peptide hits BMS-PTX-265,THLE-5B-3A4 [2],49
same,peptide hits BMS-PTX-447,THLE-5B-3A4 [2],54
same,peptide hits BMS-PTX-459,THLE-5B-3A4 [2],24
same,peptide hits BMS-PTX-607,THLE-5B-3A4 [2],13
same,peptide hits BMS-PTX-749,THLE-5B-3A4 [2],87
same,peptide hits BMS-PTX-808,THLE-5B-3A4 [2],10
same,peptide hits BMS-PTX-837,THLE-5B-3A4 [2],15
same,peptide hits BMS-PTX-860,THLE-5B-3A4 [2],15
same,peptide hits BMS-PTX-(29)147,THLE-5B-3A4 [2],128
same,peptide hits BMS-PTX-(39)147,THLE-5B-3A4 [2],24
same,change in levels of BMS-PTX-265,THLE-5B-3A4 [3],statistically significant (p<0.05) increase
CCO[C@@H](Cc1ccc(OCCN2c3ccccc3Oc3ccccc32)cc1)C(=O)O [Ragaglitazar],Toxicity in HHA Cells,HHA Cells; [5],Non-Toxic
CCc1ccc(CCOc2ccc(CC3SC(=O)NC3=O)cc2)nc1 (stereo not shown) [Pioglitazone],Toxicity in HHA Cells,HHA Cells; [5],Non-Toxic
CCO[C@@H](Cc1ccc(OCCc2ccc(OS(C)(=O)=O)cc2)cc1)C(=O)O [Tesaglitazar],Toxicity in HHA Cells,HHA Cells; [4],Non-Toxic
same,Toxicity in HHA Cells,HHA Cells; [5],Non-Toxic
same,peptide hits BMS-PTX-062,THLE-5B-3A4 [2],1
same,peptide hits BMS-PTX-120,THLE-5B-3A4 [2],3
same,peptide hits BMS-PTX-225,THLE-5B-3A4 [2],0
same,peptide hits BMS-PTX-254,THLE-5B-3A4 [2],1
same,peptide hits BMS-PTX-260,THLE-5B-3A4 [2],0
same,peptide hits BMS-PTX-265,THLE-5B-3A4 [2],8
same,peptide hits BMS-PTX-447,THLE-5B-3A4 [2],6
same,peptide hits BMS-PTX-459,THLE-5B-3A4 [2],8
same,peptide hits BMS-PTX-607,THLE-5B-3A4 [2],0
same,peptide hits BMS-PTX-749,THLE-5B-3A4 [2],6
same,peptide hits BMS-PTX-808,THLE-5B-3A4 [2],1
same,peptide hits BMS-PTX-837,THLE-5B-3A4 [2],8
same,peptide hits BMS-PTX-860,THLE-5B-3A4 [2],0
same,peptide hits BMS-PTX-(29)147,THLE-5B-3A4 [2],31
same,peptide hits BMS-PTX-(39)147,THLE-5B-3A4 [2],1
O=C(c1ccc(OCCN2CCCCC2)cc1)c1c(-c2ccc(O)cc2)sc2cc(O)ccc12 [Raloxifene],Toxicity in HHA Cells,HHA Cells; [5],Toxic
CC/C(=C(\c1ccccc1)c1ccc(OCCN(C)C)cc1)c1ccccc1 [Tamoxifen],Toxicity in HHA Cells,HHA Cells; [5],Toxic
CC1(COc2ccc(CC3SC(=O)NC3=O)cc2)CCCCC1 (stereo not shown) [Ciglitazone],Toxicity in HHA Cells,HHA Cells; [4],Toxic
same,Toxicity in HHA Cells,HHA Cells; [5],Toxic
same,IC50,[1],38 µM
same,peptide hits BMS-PTX-062,THLE-5B-3A4 [2],27
same,peptide hits BMS-PTX-120,THLE-5B-3A4 [2],44
same,peptide hits BMS-PTX-225,THLE-5B-3A4 [2],25
same,peptide hits BMS-PTX-254,THLE-5B-3A4 [2],28
same,peptide hits BMS-PTX-260,THLE-5B-3A4 [2],24
same,peptide hits BMS-PTX-265,THLE-5B-3A4 [2],93
same,peptide hits BMS-PTX-447,THLE-5B-3A4 [2],82
same,peptide hits BMS-PTX-459,THLE-5B-3A4 [2],31
same,peptide hits BMS-PTX-607,THLE-5B-3A4 [2],6
same,peptide hits BMS-PTX-749,THLE-5B-3A4 [2],142
same,peptide hits BMS-PTX-808,THLE-5B-3A4 [2],14
same,peptide hits BMS-PTX-837,THLE-5B-3A4 [2],25
same,peptide hits BMS-PTX-860,THLE-5B-3A4 [2],9
same,peptide hits BMS-PTX-(29)147,THLE-5B-3A4 [2],239
same,peptide hits BMS-PTX-(39)147,THLE-5B-3A4 [2],36
same,change in levels of BMS-PTX-265,THLE-5B-3A4 [3],statistically significant (p<0.05) increase
Cc1c(C)c2c(c(C)c1O)CCC(C)(COc1ccc(CC3SC(=O)NC3=O)cc1)O2 (stereo not shown) [Troglitazone],Toxicity in HHA Cells,HHA Cells; [4],Toxic
same,Toxicity in HHA Cells,HHA Cells; [5],Toxic
same,IC50,[1],32.7 µM
same,peptide hits BMS-PTX-062,THLE-5B-3A4 [2],4
same,peptide hits BMS-PTX-120,THLE-5B-3A4 [2],12
same,peptide hits BMS-PTX-225,THLE-5B-3A4 [2],11
same,peptide hits BMS-PTX-254,THLE-5B-3A4 [2],7
same,peptide hits BMS-PTX-260,THLE-5B-3A4 [2],4
same,peptide hits BMS-PTX-265,THLE-5B-3A4 [2],66
same,peptide hits BMS-PTX-447,THLE-5B-3A4 [2],33
same,peptide hits BMS-PTX-459,THLE-5B-3A4 [2],14
same,peptide hits BMS-PTX-607,THLE-5B-3A4 [2],7
same,peptide hits BMS-PTX-749,THLE-5B-3A4 [2],60
same,peptide hits BMS-PTX-808,THLE-5B-3A4 [2],10
same,peptide hits BMS-PTX-837,THLE-5B-3A4 [2],17
same,peptide hits BMS-PTX-860,THLE-5B-3A4 [2],4
same,peptide hits BMS-PTX-(29)147,THLE-5B-3A4 [2],67
same,peptide hits BMS-PTX-(39)147,THLE-5B-3A4 [2],19
same,change in levels of BMS-PTX-265,THLE-5B-3A4 [3],statistically significant (p<0.05) increase
O=C(O)Cc1ccccc1Nc1c(Cl)cccc1Cl [Diclofenac],Toxicity in HHA Cells,HHA Cells; [5],Non-Toxic
CC(C)Cc1ccc(C(C)C(=O)O)cc1 (stereo not shown) [Ibuprofen],Toxicity in HHA Cells,HHA Cells; [5],Non-Toxic
CN1CCN(CCCN2c3ccccc3Sc3ccc(C(F)(F)F)cc32)CC1 [Trifluoperazine],Toxicity in HHA Cells,HHA Cells; [5],Toxic
C#C[C@]1(O)CC[C@H]2[C@@H]3CCc4cc(O)ccc4[C@H]3CC[C@@]21C [Ethinyl Estradiol],Toxicity in HHA Cells,HHA Cells; [5],Non-Toxic
O=C1CN(/N=C/c2ccc(-c3ccc([N+](=O)[O-])cc3)o2)C(O)=N1 [Dantrolene],Toxicity in HHA Cells,HHA Cells; [5],Toxic
CN(CCOc1ccc(CC2SC(=O)NC2=O)cc1)c1ccccn1 (stereo not shown) [Rosiglitazone],Toxicity in HHA Cells,HHA Cells; [4],Non-Toxic
same,Toxicity in HHA Cells,HHA Cells; [5],Non-Toxic
C1CCC(C(CC2CCCCN2)C2CCCCC2)CC1 (stereo not shown) [Perhexilene],Toxicity in HHA Cells,HHA Cells; [5],Toxic
